{"source": "BindingDB's records for PubMed 38330869", "about": "(National Institute of Pharmaceutical Education and …)", "data": [{"experiment": "Inhibition of wild type influenza A virus H5N1 (A/chicken/Hubei/327/2004) matrix protein 2 transfected in yeast assessed as yeast growth restoration measured after 46 to 48 hrs", "units": {"EC50": "nM"}, "values": [{"smiles": "Cc1cc(CNS(=O)(=O)c2ccc([N+](=O)[O-])cc2)c(C)o1", "EC50": 1710}, {"smiles": "Cc1cc(CNS(=O)(=O)c2ccc(Cl)cc2)c(C)o1", "EC50": 3070}, {"smiles": "Cc1cc(CNS(=O)(=O)c2ccc([N+](=O)[O-])cc2)c(C)s1", "EC50": 2210}, {"smiles": "Cc1cc(CNS(=O)(=O)c2ccc(C#N)cc2)c(C)s1", "EC50": 1400}, {"smiles": "Cc1cc(CNS(=O)(=O)c2ccc(Cl)cc2)c(C)s1", "EC50": 1080}, {"smiles": "Cc1cc(CNS(=O)(=O)c2ccc(Br)cc2)c(C)s1", "EC50": 1580}, {"smiles": "O=[N+]([O-])c1ccc(S(=O)(=O)NCc2csc3ccccc23)cc1", "EC50": 3440}]}]}
